Data as given in patent US9783532B2, “Molecules having certain pesticidal utilities, and intermediates, compositions, and processes related thereto” (Dow AgroSciences LLC, priority 2013, dated 2017).

Experiments:
Assay type in all cases: in vivo
[1] = tested on: Cabbage Looper (Trichoplusia ni) ("CL"); experiment: Bioassay on cabbage looper (CL), 128-well diet tray assay; settings: for pest or weed control at 50 µg/cm2: Table ABC (FB), activity rating class, read-out: CL (Biological Results, Insect species)
Summary of the method: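 Second-instar larvae (one to five per well) placed on artificial diet surface-treated with 50 μg/cm^2 compound in 90:10 acetone-water, dried before infestation. Held 25 °C, 14:10 light-dark for five to seven days; percent mortality scored per well and averaged over eight wells.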

[2] = tested on: Beet Armyworm (Spodoptera exigua) ("BAW"); experiment: Bioassay on beet armyworm (BAW), 128-well diet tray assay; settings: for pest or weed control at 50 µg/cm2: Table ABC (FB), activity rating class, read-out: BAW (Biological Results, Insect species)
Summary of the method: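 Second-instar larvae (one to five per well) were placed on artificial diet surface-treated with 50 μg/cm^2 compound applied in 90:10 acetone-water and dried, eight wells per compound. Held at 25° C., 14:10 light-dark for five to seven days; percent mortality was scored per well and averaged over the eight wells.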

[3] = tested on: Yellow Fever Mosquito "YFM" (Aedes aegypti); settings: for YFM (Biological Results, Insect species): Table ABC (FB), activity rating class
Procedure: Certain molecules disclosed in this document were tested against YFM using procedures described in the following paragraph. In the reporting of the results, the “YFM Rating Table” was used (See Table Section).
Master plates containing 400 μg of a molecule dissolved in 100 μL of dimethyl sulfoxide (DMSO) (equivalent to a 4000 ppm solution) are used. A master plate of assembled molecules contains 15 μL per well. To this plate, 135 μL of a 90:10 wateracetone mixture is added to each well. A robot (Biomek® NXP Laboratory Automation Workstation) is programmed to dispense 15 μL aspirations from the master plate into an empty 96-well shallow plate (“daughter” plate). There are 6 reps (“daughter” plates) created per master. The created daughter plates are then immediately infested with YFM larvae.
The day before plates are to be treated, mosquito eggs are placed in Millipore water containing liver powder to begin hatching (4 g. into 400 mL). After the daughter plates are created using the robot, they are infested with 220 μL of the liver powder/larval mosquito mixture (about 1 day-old larvae). After plates are infested with mosquito larvae, a non-evaporative lid is used to cover the plate to reduce drying. Plates are held at room temperature for 3 days prior to grading. After 3 days, each well is observed and scored based on mortality.

Structure (SMILES)	mortality at 50 µg/cm2 ([1]; 168 h, 50 μg/cm^2 on artificial diet, second instar CL larvae, 25° C., five to seven days, average of eight wells, read-out: CL % Control (or Mortality) rating)	mortality at 50 µg/cm2 ([2]; 168 h, 50 μg/cm^2 on artificial diet, second instar BAW larvae, 25° C., five to seven days, average of eight wells, read-out: BAW % Control (or Mortality) rating)	YFM % Control (or Mortality) rating ([3]; about 1 day-old larvae, 96-well plate, room temperature, 3 days, mortality)	pest or weed control at 50 µg/cm2 [1]	pest or weed control at 50 µg/cm2 [2]	YFM (Biological Results, Insect species) [3]
Cc1ccc(C(C)C)c(N2C(=O)CS/C2=N\C(=O)NCCCc2ccc(-c3ncn(-c4ccc(OC(F)(F)F)cc4)n3)cc2)c1 [F20, (Z)-1-(3-(2-isopropyl-5-methylphenyl)-4-oxothiazolidin-2-ylidene)-3-(3-(4-(1-(4-(trifluoromethoxy)phenyl)-1H-1,2,4-triazol-3-yl)phenyl)propyl)urea]	50 to 100%	50 to 100%	A (80-100)	–	–	–
Cc1ccc(N2C(=O)CS/C2=N\C(=O)NCCCCc2ccc(-c3ncn(-c4ccc(OC(F)(F)F)cc4)n3)cc2)c(C)c1 [FB17, (Z)-1-(3-(2,4-dimethylphenyl)-4-oxothiazolidin-2-ylidene)-3-(4-(4-(1-(4-(trifluoromethoxy)phenyl)-1H-1,2,4-triazol-3-yl)phenyl)butyl)urea]	–	–	–	50 to 100%	50 to 100%	A (80-100)
CC(C)c1ccc(Cl)cc1N1C(=O)CS/C1=N\C(=O)NCCc1ccc(-c2ncn(-c3ccc(OC(F)(F)F)cc3)n2)cc1 [FB40, (Z)-1-(3-(5-chloro-2-isopropylphenyl)-4-oxothiazolidin-2-ylidene)-3-(4-(1-(4-(trifluoromethoxy)phenyl)-1H-1,2,4-triazol-3-yl)phenethyl)urea]	–	–	–	50 to 100%	50 to 100%	A (80-100)
Cc1ccc(C(C)C)c(N2C(=O)CCS/C2=N\C(=O)NCCc2ccc(-c3ncn(-c4ccc(OC(F)(F)F)cc4)n3)cc2)c1 [FB41]	–	–	–	50 to 100%	50 to 100%	A (80-100)
CC(Cc1ccc(-c2ncn(-c3ccc(OC(F)(F)F)cc3)n2)cc1)NC(=O)/N=C1\SCC(=O)N1c1cc(Cl)ccc1C(C)C (stereo not drawn) [FB42]	–	–	–	50 to 100%	50 to 100%	A (80-100)
Cc1ccc(N2C(=O)CS/C2=N\C(=O)NC(C)Cc2ccc(-c3ncn(-c4ccc(OC(F)(F)F)cc4)n3)cc2)c(C(C)C)c1 (stereo not drawn) [FB48, (Z)-1-(3-(2-isopropyl-4-methylphenyl)-4-oxothiazolidin-2-ylidene)-3-(1-(4-(1-(4-(trifluoromethoxy)phenyl)-1H-1,2,4-triazol-3-yl)phenyl)propan-2-yl)urea]	–	–	–	50 to 100%	50 to 100%	A (80-100)
CC(C)c1ccc(Cl)cc1N1C(=O)CS/C1=N\C(=O)NCC(C)c1ccc(-c2ncn(-c3ccc(OC(F)(F)F)cc3)n2)cc1 (stereo not drawn) [FB49, (Z)-1-(3-(5-chloro-2-isopropylphenyl)-4-oxothiazolidin-2-ylidene)-3-(2-(4-(1-(4-(trifluoromethoxy)phenyl)-1H-1,2,4-triazol-2,4-triazol-3-yl)phenyl)propyl)urea]	–	–	–	50 to 100%	50 to 100%	A (80-100)
Cc1ccc(C(C)C)c(N2C(=O)CS/C2=N\C(=O)N(C)CCc2ccc(-c3ncn(-c4ccc(OC(F)(F)F)cc4)n3)cc2)c1 [FB51]	–	–	–	50 to 100%	50 to 100%	A (80-100)
Cc1ccc(C(C)C)c(N2C(=O)CS/C2=N\C(=O)NCC(C)(C)c2ccc(-c3ncn(-c4ccc(OC(F)(F)F)cc4)n3)cc2)c1 [FB53, (Z)-1-(3-(2-isopropyl-5-methylphenyl)-4-oxothiazolidin-2-ylidene)-3-(2-methyl-2-(4-(1-(4-(trifluoromethoxy)phenyl)-1H-1,2,4-triazol-3-yl)phenyl)propyl)urea]	–	–	–	50 to 100%	50 to 100%	B (More than 0-Less than 80)
